Measurements published in US20070123492A1, “Analogs of lysophosphatidic acid and methods of making and using thereof” (priority 2003, published 2007).

Assays:
LPA3 [1] = target: T1, LPA3 (Homo sapiens, UniProt Q9UBY5); test: Agonist/antagonist activity in insect cells expressing LPA3; assay type: cell-based; parameters: expressed in transfected cells; host or cells: insect cells
T1 sequence (Q9UBY5 1-353): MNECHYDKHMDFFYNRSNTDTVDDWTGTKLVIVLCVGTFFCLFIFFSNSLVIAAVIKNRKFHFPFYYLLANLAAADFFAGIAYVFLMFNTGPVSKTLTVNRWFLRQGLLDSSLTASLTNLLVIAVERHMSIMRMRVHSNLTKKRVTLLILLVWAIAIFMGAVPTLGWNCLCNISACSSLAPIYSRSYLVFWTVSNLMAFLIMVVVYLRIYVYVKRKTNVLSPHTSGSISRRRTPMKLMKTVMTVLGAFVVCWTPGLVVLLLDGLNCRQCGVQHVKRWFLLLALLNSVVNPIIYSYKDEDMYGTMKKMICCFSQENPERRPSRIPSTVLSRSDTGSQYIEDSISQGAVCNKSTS

(18:1) LPA pain response = test: (18:1) LPA pain response; assay type: in vivo; conditions: preliminary results
LPA2 = target: T2, LPA2 (Homo sapiens, UniProt Q9HBW0); test: Agonist/antagonist activity in insect cells expressing LPA2; assay type: cell-based
T2 construct: expressed in transfected cells; host or cells: insect cells

platelets = test: Platelet activation by fluorinated LPA analogues; assay type: cell-based; conditions: preliminary results
LPA1 = target: T3, LPA1 (Homo sapiens, UniProt Q92633); test: Agonist/antagonist activity in insect cells expressing LPA1; assay type: cell-based
T3 construct: expressed in transfected cells; host or cells: insect cells

LPA3 [2] = target: T1, LPA3; test: Potency on the LPA3 receptor; assay type: cell-based; conditions: preliminary data
Edg7/LPA3 = Edg7/LPA3 (Homo sapiens, UniProt Q9UBY5); conditions: Edg7/LPA3 as compared to Edg2/LPA1 or Edg4/LPA2; cited from earlier work
LPA receptor = conditions: Xenopus oocytes; cited from earlier work

T3 sequence (Q92633 whole entry, species assumed): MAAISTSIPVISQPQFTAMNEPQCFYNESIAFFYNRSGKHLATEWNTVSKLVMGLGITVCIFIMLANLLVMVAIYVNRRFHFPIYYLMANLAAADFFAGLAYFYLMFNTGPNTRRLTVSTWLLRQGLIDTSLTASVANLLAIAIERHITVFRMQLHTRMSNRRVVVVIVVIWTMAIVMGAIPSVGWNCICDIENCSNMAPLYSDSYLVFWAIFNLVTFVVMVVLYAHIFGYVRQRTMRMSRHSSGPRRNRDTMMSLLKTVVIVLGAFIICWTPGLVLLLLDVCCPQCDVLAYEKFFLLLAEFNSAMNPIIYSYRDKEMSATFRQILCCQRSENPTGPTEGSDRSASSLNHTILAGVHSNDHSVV
T2 sequence (Q9HBW0 whole entry, species assumed): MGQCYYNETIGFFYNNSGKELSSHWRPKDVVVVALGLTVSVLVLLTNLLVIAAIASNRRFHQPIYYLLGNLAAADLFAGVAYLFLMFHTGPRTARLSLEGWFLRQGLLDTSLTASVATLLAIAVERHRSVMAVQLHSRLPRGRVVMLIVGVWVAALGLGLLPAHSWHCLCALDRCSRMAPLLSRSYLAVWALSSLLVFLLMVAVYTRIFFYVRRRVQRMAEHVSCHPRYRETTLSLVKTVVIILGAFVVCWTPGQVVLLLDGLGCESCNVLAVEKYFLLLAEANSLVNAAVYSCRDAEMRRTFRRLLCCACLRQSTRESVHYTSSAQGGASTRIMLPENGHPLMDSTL

Compound: CCCCCCCC/C=C\CCCCCCCC(=O)O[C@H](CF)COP(=O)(O)O [Compound 1a, 1-Phospho-2(S)-(oleoyl)-3-fluorine-propane-1,2-diol]
- agonist or antagonist activity (LPA3 [1]): failed to show either significant agonist or antagonist activity
- agonism of the (18:1) LPA pain response ((18:1) LPA pain response): partial agonists
- agonist or antagonist activity (LPA2): failed to show either significant agonist or antagonist activity
- ability to activate platelets (platelets): able to activate platelets
- agonist or antagonist activity (LPA1): failed to show either significant agonist or antagonist activity

Compound: CCCCCCCCCCCCCCCC(=O)O[C@H](CF)COP(=O)(O)O [Compound 1b, 1-Phospho-2(S)-(palmitoyl)-3-fluorine-propane-1,2-diol]
- agonist or antagonist activity (LPA3 [1]): failed to show either significant agonist or antagonist activity
- agonism of the (18:1) LPA pain response ((18:1) LPA pain response): partial agonists
- agonist or antagonist activity (LPA2): failed to show either significant agonist or antagonist activity
- ability to activate platelets (platelets): able to activate platelets
- agonist or antagonist activity (LPA1): failed to show either significant agonist or antagonist activity

Compound: CCCCCCCC/C=C\CCCCCCCC(=O)O[C@H](CF)COP(=O)(O)O [Compound 1c, 1-Phospho-2(S)-(oleoyl)-3-fluorine-propane-1,2-diol]
- potency on LPA3 relative to 1a (R) (LPA3 [2]; relative to 1a (R)): approximately 100 fold
- potency relative to natural 18:1 LPA on the LPA3 receptor (LPA3 [2]): somewhat more potent

Compound: CCCCCCCC/C=C\CCCCCCCC(=O)OC[C@@H](COP(O)(O)=S)OC [OMPT]
- receptor subtype selectivity (Edg7/LPA3): preferred selectivity for Edg7/LPA3

Compound: CCCCCCCCCCCCCCCC(=O)NC(COP(=O)(O)O)C(=O)O (centres unmarked) [compound 33]
- antagonism of LPA receptor function (LPA receptor): potent competitive antagonists

Compound: CCCCCCCCCCCCCCCC(=O)NC(Cc1ccc(OP(=O)(O)O)cc1)C(=O)O (centres unmarked) [compound 34]
- antagonism of LPA receptor function (LPA receptor): potent competitive antagonists

Compound: [1-Fluoro-3(S)-hydroxyl-4-(oleoyloxy)butyl]phosphonate [Compound 3aa]
- potency on LPA3 relative to 3ab (R) (LPA3 [2]; relative to 3ab (R)): approximately 100 fold
- potency relative to natural 18:1 LPA on the LPA3 receptor (LPA3 [2]): 1000 fold
